# Data from ChEMBL document CHEMBL1201861, “Genomics of Drug Sensitity in Cancer screening data, Wellcome Trust Sanger Institute”.
# Key:
# Test in all cases: cells
# Assay type in all cases: functional, cell-based
# Conditions in all cases: Homo sapiens
# TGBC1TKB = test system: TGBC1TKB;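 note: growth inhibition of TGBC1TKB cells, read out by a cell viability assay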
# Description: SANGER: Inhibition of human TGBC1TKB cell growth in a cell viability assay.
# PSN1 = test system: PSN1;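 note: suppression of growth of human PSN1 cells, read out by a cell viability assay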
# Description: SANGER: Inhibition of human PSN1 cell growth in a cell viability assay.
# SCH = test system: SCH;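 note: growth inhibition of human SCH cells, read out in a cell viability assay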
# Description: SANGER: Inhibition of human SCH cell growth in a cell viability assay.
# SK-UT-1 = test system: SK-UT-1;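 note: growth inhibition of SK-UT-1 cells, measured by a cell viability assay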
# Description: SANGER: Inhibition of human SK-UT-1 cell growth in a cell viability assay.
# LC-2-ad = test system: LC-2-ad;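 note: growth inhibition of human LC-2-ad cells, read out with a cell viability assay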
# Description: SANGER: Inhibition of human LC-2-ad cell growth in a cell viability assay.
# LOX IMVI = test system: LOX IMVI
# Description: SANGER: Inhibition of human LOXIMVI cell growth in a cell viability assay.
# ES5 = test system: ES5;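 note: growth inhibition of human ES5 cells, read out by a cell viability assay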
# Description: SANGER: Inhibition of human ES5 cell growth in a cell viability assay.
# ACN = test system: ACN;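 note: growth inhibition of the human ACN cell line, read out via cell viability testing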
# Description: SANGER: Inhibition of human ACN cell growth in a cell viability assay.
# CTB-1 = test system: CTB-1
# Description: SANGER: Inhibition of human CTB-1 cell growth in a cell viability assay.
# CTV-1 = test system: CTV-1;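 note: growth inhibition of the cell line, read out with a cell viability assay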
# Description: SANGER: Inhibition of human CTV-1 cell growth in a cell viability assay.
# SW 954 = test system: SW 954;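 note: growth inhibition of SW954 human cancer cells, read out as cell viability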
# Description: SANGER: Inhibition of human SW954 cell growth in a cell viability assay.
# IST-MEL1 = test system: IST-MEL1;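 note: growth inhibition of the cell line, read out with a cell viability assay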
# Description: SANGER: Inhibition of human IST-MEL1 cell growth in a cell viability assay.
# SW684 = test system: SW684;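 note: growth inhibition of human SW684 cells, measured by a cell viability assay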
# Description: SANGER: Inhibition of human SW684 cell growth in a cell viability assay.
# MFH-ino = test system: MFH-ino;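 note: growth inhibition of human MFH-ino cells, read out by a cell viability assay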
# Description: SANGER: Inhibition of human MFH-ino cell growth in a cell viability assay.
# TE-5 = test system: TE-5;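 note: inhibition of cell growth, read out by a cell viability assay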
# Description: SANGER: Inhibition of human TE-5 cell growth in a cell viability assay.
# EW-3 = test system: EW-3;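 note: cell viability assay read-out, IC50 reflects inhibition of growth of the EW-3 cells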
# Description: SANGER: Inhibition of human EW-3 cell growth in a cell viability assay.
# LB771-HNC = test system: LB771-HNC;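 note: growth inhibition of LB771-HNC human cells, read out with a cell viability assay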
# Description: SANGER: Inhibition of human LB771-HNC cell growth in a cell viability assay.
# OS-RC-2 = test system: OS-RC-2;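 note: growth inhibition of human OS-RC-2 cells, measured by a cell viability assay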
# Description: SANGER: Inhibition of human OS-RC-2 cell growth in a cell viability assay.
# LB2241-RCC = test system: LB2241-RCC;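 note: cell viability assay measuring how strongly the cultured human renal carcinoma line is prevented from growing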
# Description: SANGER: Inhibition of human LB2241-RCC cell growth in a cell viability assay.
# NB6 = test system: NB6;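 note: growth inhibition of NB6 cells, read out by a cell viability assay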
# Description: SANGER: Inhibition of human NB6 cell growth in a cell viability assay.
# D-502MG = test system: D-502MG
# Description: SANGER: Inhibition of human D-502MG cell growth in a cell viability assay.
# NCI-H82 = test system: NCI-H82;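 note: growth inhibition of NCI-H82 cells, measured with a cell viability readout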
# Description: SANGER: Inhibition of human NCI-H82 cell growth in a cell viability assay.
# TE-11 = test system: TE-11;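 note: growth inhibition of human TE-11 cells, read out by a cell viability assay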
# Description: SANGER: Inhibition of human TE-11 cell growth in a cell viability assay.
# ETK-1 = test system: ETK-1;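 note: growth inhibition of human ETK-1 cells, read out with a cell viability assay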
# Description: SANGER: Inhibition of human ETK-1 cell growth in a cell viability assay.
# KARPAS-299 = test system: KARPAS-299
# Description: SANGER: Inhibition of human KARPAS-299 cell growth in a cell viability assay.
# KG-1 = test system: KG-1;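 note: growth inhibition of KG-1 cells, read out by a cell viability assay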
# Description: SANGER: Inhibition of human KG-1 cell growth in a cell viability assay.
# LU-139 = test system: LU-139
# Description: SANGER: Inhibition of human LU-139 cell growth in a cell viability assay.
# VA-ES-BJ = test system: VA-ES-BJ;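 note: growth inhibition of the VA-ES-BJ cell line, read out by a cell viability assay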
# Description: SANGER: Inhibition of human VA-ES-BJ cell growth in a cell viability assay.
# DMS-79 = test system: DMS-79;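 note: growth inhibition measured with a cell viability assay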
# Description: SANGER: Inhibition of human DMS-79 cell growth in a cell viability assay.
# BB49-HNC = test system: BB49-HNC;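 note: cell viability assay read-out, reported as inhibition of BB49-HNC cell growth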
# Description: SANGER: Inhibition of human BB49-HNC cell growth in a cell viability assay.
# RXF 393 = test system: RXF 393;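 note: growth inhibition of human RXF 393 cells, read out with a cell viability assay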
# Description: SANGER: Inhibition of human RXF393 cell growth in a cell viability assay.
# NCI-H69 = test system: NCI-H69;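 note: growth inhibition of the cell line, read out with a cell viability assay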
# Description: SANGER: Inhibition of human NCI-H69 cell growth in a cell viability assay.
# MPP-89 = test system: MPP-89;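 note: growth inhibition of human MPP-89 cells, read out with a cell viability assay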
# Description: SANGER: Inhibition of human MPP-89 cell growth in a cell viability assay.
# DU-4475 = test system: DU-4475
# Description: SANGER: Inhibition of human DU-4475 cell growth in a cell viability assay.
# NOS-1 = test system: NOS-1;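 note: growth inhibition of the human NOS-1 cell line, read out with a cell viability assay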
# Description: SANGER: Inhibition of human NOS-1 cell growth in a cell viability assay.
# A3-KAW = test system: A3-KAW;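 note: growth inhibition of human A3-KAW cells, read out with a cell viability assay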
# Description: SANGER: Inhibition of human A3-KAW cell growth in a cell viability assay.
# TE-1 = test system: TE-1;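 note: growth inhibition of the human TE-1 cell line, read out with a cell viability assay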
# Description: SANGER: Inhibition of human TE-1 cell growth in a cell viability assay.
# KGN = test system: KGN;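 note: growth inhibition of KGN cells, read out with a cell viability assay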
# Description: SANGER: Inhibition of human KGN cell growth in a cell viability assay.
# CW-2 = test system: CW-2;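 note: growth inhibition of CW-2 cells, read out by a cell viability assay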
# Description: SANGER: Inhibition of human CW-2 cell growth in a cell viability assay.
# MFM-223 = test system: MFM-223
# Description: SANGER: Inhibition of human MFM-223 cell growth in a cell viability assay.
# NCI-H510A = test system: NCI-H510A;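 note: growth inhibition of NCI-H510A cells, read out with a cell viability assay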
# Description: SANGER: Inhibition of human NCI-H510A cell growth in a cell viability assay.
# LXF-289 cell line = test system: LXF-289 cell line
# Description: SANGER: Inhibition of human LXF-289 cell growth in a cell viability assay.
# NCI-H446 = test system: NCI-H446;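 note: growth inhibition of NCI-H446 cells determined by a cell viability assay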
# Description: SANGER: Inhibition of human NCI-H446 cell growth in a cell viability assay.
# HT = test system: HT
# Description: SANGER: Inhibition of human HT cell growth in a cell viability assay.
# A4-Fuk = test system: A4-Fuk;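 note: growth inhibition of A4-Fuk cells, read out by a cell viability assay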
# Description: SANGER: Inhibition of human A4-Fuk cell growth in a cell viability assay.
# BE-13 = test system: BE-13;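 note: growth inhibition of human BE-13 cells, measured with a cell viability assay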
# Description: SANGER: Inhibition of human BE-13 cell growth in a cell viability assay.
# no-10 = test system: no-10;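 note: growth inhibition of no-10 cells, read out with a cell viability assay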
# Description: SANGER: Inhibition of human no-10 cell growth in a cell viability assay.
# LS-513 = test system: LS-513
# Description: SANGER: Inhibition of human LS-513 cell growth in a cell viability assay.
# NCI-H2126 = test system: NCI-H2126;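 note: growth inhibition of the cancer cell line, determined with a cell viability readout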
# Description: SANGER: Inhibition of human NCI-H2126 cell growth in a cell viability assay.
# TE-9 = test system: TE-9;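 note: cell growth inhibition, measured with a cell viability readout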
# Description: SANGER: Inhibition of human TE-9 cell growth in a cell viability assay.
# SK-MEL-2 = test system: SK-MEL-2;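 note: growth inhibition of human SK-MEL-2 cells measured with a cell viability assay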
# Description: SANGER: Inhibition of human SK-MEL-2 cell growth in a cell viability assay.
# BV-173 = test system: BV-173
# Description: SANGER: Inhibition of human BV-173 cell growth in a cell viability assay.
# COLO-800 = test system: COLO-800;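 note: growth inhibition of COLO-800 cells, read out with a cell viability assay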
# Description: SANGER: Inhibition of human COLO-800 cell growth in a cell viability assay.
# ES7 = test system: ES7;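 note: growth inhibition of cultured human ES7 cells, read out as cell viability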
# Description: SANGER: Inhibition of human ES7 cell growth in a cell viability assay.
# NCI-H226 = test system: NCI-H226;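 note: cell viability read-out used to gauge growth inhibition of the cells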
# Description: SANGER: Inhibition of human NCI-H226 cell growth in a cell viability assay.
# NKM-1 = test system: NKM-1;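 note: growth inhibition of NKM-1 cells, read out with a cell viability assay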
# Description: SANGER: Inhibition of human NKM-1 cell growth in a cell viability assay.
# K562 = test system: K562
# Description: SANGER: Inhibition of human K-562 cell growth in a cell viability assay.
# NOMO-1 = test system: NOMO-1;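 note: growth inhibition of human NOMO-1 cells measured by a cell viability assay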
# Description: SANGER: Inhibition of human NOMO-1 cell growth in a cell viability assay.
# TE-8 = test system: TE-8;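 note: growth inhibition of TE-8 cells, measured with a cell viability readout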
# Description: SANGER: Inhibition of human TE-8 cell growth in a cell viability assay.
# DJM-1 = test system: DJM-1;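 note: growth inhibition of human DJM-1 cells, read out by a cell viability assay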
# Description: SANGER: Inhibition of human DJM-1 cell growth in a cell viability assay.
# COLO-824 = test system: COLO-824
# Description: SANGER: Inhibition of human COLO-824 cell growth in a cell viability assay.
# SW872 = test system: SW872;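 note: growth inhibition of SW872 cells, read out by a viability assay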
# Description: SANGER: Inhibition of human SW872 cell growth in a cell viability assay.
# COLO-829 = test system: COLO-829
# Description: SANGER: Inhibition of human COLO-829 cell growth in a cell viability assay.
# NCI-H1092 = test system: NCI-H1092
# Description: SANGER: Inhibition of human NCI-H1092 cell growth in a cell viability assay.
# HCC2218 = test system: HCC2218
# Description: SANGER: Inhibition of human HCC2218 cell growth in a cell viability assay.
# HAL-01 = test system: HAL-01
# Description: SANGER: Inhibition of human HAL-01 cell growth in a cell viability assay.
smiles,measurement,setting,value
CO[C@@]12[C@H](COC(N)=O)C3=C(C(=O)C(C)=C(N)C3=O)N1C[C@@H]1N[C@@H]12 [MITOMYCIN],IC50,TGBC1TKB,1.21 µM
same,IC50,PSN1,< 0.0625 µM
same,IC50,SCH,> 16 µM
same,IC50,SK-UT-1,0.0828 µM
same,IC50,LC-2-ad,< 0.0625 µM
same,IC50,LOX IMVI,0.353 µM
same,IC50,ES5,0.102 µM
same,IC50,ACN,0.128 µM
same,IC50,CTB-1,0.306 µM
same,IC50,CTV-1,0.0187 µM
same,IC50,SW 954,0.0449 µM
same,IC50,IST-MEL1,< 0.0625 µM
same,IC50,SW684,> 16 µM
same,IC50,MFH-ino,0.0706 µM
same,IC50,TE-5,0.132 µM
same,IC50,EW-3,0.0619 µM
same,IC50,LB771-HNC,0.78 µM
same,IC50,OS-RC-2,0.264 µM
same,IC50,LB2241-RCC,< 0.0625 µM
same,IC50,NB6,2.23 µM
same,IC50,D-502MG,> 16 µM
same,IC50,NCI-H82,2.8 µM
same,IC50,TE-11,0.0918 µM
same,IC50,ETK-1,0.108 µM
same,IC50,KARPAS-299,1.42 µM
same,IC50,KG-1,0.597 µM
same,IC50,LU-139,1.22 µM
same,IC50,VA-ES-BJ,0.0522 µM
same,IC50,DMS-79,2.47 µM
same,IC50,BB49-HNC,0.353 µM
same,IC50,RXF 393,4.39 µM
same,IC50,NCI-H69,1.68 µM
same,IC50,MPP-89,0.991 µM
same,IC50,DU-4475,0.0475 µM
same,IC50,NOS-1,1.5 µM
same,IC50,A3-KAW,0.035 µM
same,IC50,TE-1,0.165 µM
same,IC50,KGN,0.207 µM
same,IC50,CW-2,7.73 µM
same,IC50,MFM-223,10.4 µM
same,IC50,NCI-H510A,0.403 µM
same,IC50,LXF-289 cell line,0.0554 µM
same,IC50,NCI-H446,12.4 µM
same,IC50,HT,1.54 µM
same,IC50,A4-Fuk,0.225 µM
same,IC50,BE-13,< 0.0625 µM
same,IC50,no-10,0.3 µM
same,IC50,LS-513,1.18 µM
same,IC50,NCI-H2126,0.26 µM
same,IC50,TE-9,0.5 µM
same,IC50,SK-MEL-2,3.97 µM
same,IC50,BV-173,< 0.0625 µM
same,IC50,COLO-800,0.0787 µM
same,IC50,ES7,< 0.0625 µM
same,IC50,NCI-H226,0.777 µM
same,IC50,NKM-1,< 0.0625 µM
same,IC50,K562,1.98 µM
same,IC50,NOMO-1,0.151 µM
same,IC50,TE-8,0.0359 µM
same,IC50,DJM-1,1.03 µM
same,IC50,COLO-824,1.44 µM
same,IC50,SW872,< 0.0625 µM
same,IC50,COLO-829,2.09 µM
same,IC50,NCI-H1092,3.28 µM
same,IC50,HCC2218,0.589 µM
same,IC50,HAL-01,0.0157 µM
COc1cc(Nc2c(C#N)cnc3cc(OCCCN4CCN(C)CC4)c(OC)cc23)c(Cl)cc1Cl [BOSUTINIB],IC50,TGBC1TKB,> 2 µM
same,IC50,PSN1,> 2 µM
same,IC50,SCH,> 2 µM
same,IC50,SK-UT-1,> 2 µM
same,IC50,LC-2-ad,> 2 µM
same,IC50,LOX IMVI,1.75 µM
same,IC50,ES5,1.87 µM
same,IC50,ACN,> 2 µM
same,IC50,CTB-1,0.548 µM
same,IC50,CTV-1,0.164 µM
same,IC50,SW 954,1.55 µM
same,IC50,IST-MEL1,> 2 µM
same,IC50,SW684,> 2 µM
same,IC50,MFH-ino,> 2 µM
same,IC50,TE-5,> 2 µM
same,IC50,EW-3,0.559 µM
same,IC50,LB771-HNC,0.831 µM
same,IC50,OS-RC-2,> 2 µM
same,IC50,LB2241-RCC,0.537 µM
same,IC50,NB6,> 2 µM
same,IC50,D-502MG,> 2 µM
same,IC50,NCI-H82,> 2 µM
same,IC50,TE-11,> 2 µM
same,IC50,ETK-1,> 2 µM
same,IC50,KARPAS-299,> 2 µM
same,IC50,KG-1,1.41 µM
same,IC50,LU-139,> 2 µM
same,IC50,VA-ES-BJ,> 2 µM
same,IC50,DMS-79,> 2 µM
same,IC50,BB49-HNC,> 2 µM
same,IC50,RXF 393,> 2 µM
same,IC50,NCI-H69,> 2 µM
same,IC50,MPP-89,> 2 µM
same,IC50,DU-4475,> 2 µM
same,IC50,NOS-1,> 2 µM
same,IC50,A3-KAW,0.792 µM
same,IC50,TE-1,> 2 µM
same,IC50,KGN,> 2 µM
same,IC50,CW-2,> 2 µM
same,IC50,MFM-223,> 2 µM
same,IC50,NCI-H510A,> 2 µM
same,IC50,LXF-289 cell line,> 2 µM
same,IC50,NCI-H446,> 2 µM
same,IC50,HT,> 2 µM
same,IC50,A4-Fuk,1.31 µM
same,IC50,BE-13,0.486 µM
same,IC50,no-10,> 2 µM
same,IC50,LS-513,> 2 µM
same,IC50,NCI-H2126,> 2 µM
same,IC50,TE-9,> 2 µM
same,IC50,SK-MEL-2,> 2 µM
same,IC50,BV-173,0.508 µM
same,IC50,COLO-800,> 2 µM
same,IC50,ES7,> 2 µM
same,IC50,NCI-H226,> 2 µM
same,IC50,NKM-1,1.72 µM
same,IC50,K562,> 2 µM
same,IC50,NOMO-1,> 2 µM
same,IC50,TE-8,> 2 µM
same,IC50,DJM-1,> 2 µM
same,IC50,COLO-824,> 2 µM
same,IC50,SW872,> 2 µM
same,IC50,COLO-829,> 2 µM
same,IC50,NCI-H1092,> 2 µM
same,IC50,HCC2218,> 2 µM
same,IC50,HAL-01,1.09 µM
